Six compounds from ChEMBL document CHEMBL5465560, “Selectivity Literature for EUbOPEN Chemogenomic Library” (2024) can be followed below.

Assay [1] addresses T1, Scaffold protein ILK (Homo sapiens) (UniProt Q13418).
T1 sequence (whole entry): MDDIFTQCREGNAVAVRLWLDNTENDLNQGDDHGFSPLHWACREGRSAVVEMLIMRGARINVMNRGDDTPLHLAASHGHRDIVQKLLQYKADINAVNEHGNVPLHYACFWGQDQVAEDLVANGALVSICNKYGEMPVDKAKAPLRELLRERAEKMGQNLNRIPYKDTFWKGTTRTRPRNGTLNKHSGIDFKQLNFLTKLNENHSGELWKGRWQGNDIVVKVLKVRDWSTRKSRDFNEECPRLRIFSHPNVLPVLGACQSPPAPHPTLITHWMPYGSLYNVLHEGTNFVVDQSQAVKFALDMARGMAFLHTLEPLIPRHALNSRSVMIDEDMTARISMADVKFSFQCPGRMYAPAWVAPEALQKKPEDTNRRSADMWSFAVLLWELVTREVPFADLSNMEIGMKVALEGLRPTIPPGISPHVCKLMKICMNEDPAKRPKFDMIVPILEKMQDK
Briefly: Selectivity interaction (Kinase panel (KiNativ target engagement assay in Jurkat cells)) EUB0001635a ILK. Format: cell-based. The settings on record: Selectivity number of off-targets 0.0, Selectivity number of targets 233.0, Source Knowledge https://www.sciencedirect.com/science/article/pii/S2451945619300674?via%3Dihub, at 1 µM.

Assay [2] addresses Ribosomal protein S6 kinase alpha-4 (Homo sapiens) (UniProt O75676). The conditions noted are these: at 10 µM.
Assay [3] has as its target MAP/microtubule affinity-regulating kinase 3 (Homo sapiens) (UniProt P27448). Briefly: Selectivity interaction (ActivX KiNativ screen (kinase selectivity in THP-1 cell lysates)) EUB0000639a MARK3. Type of assay: subcellular. The settings on record: lysate, at 0.2 µM.
The target of assay [4] is T2, Serine/threonine-protein kinase ULK3 (Homo sapiens) (UniProt Q6PHR2).
T2 sequence (whole entry): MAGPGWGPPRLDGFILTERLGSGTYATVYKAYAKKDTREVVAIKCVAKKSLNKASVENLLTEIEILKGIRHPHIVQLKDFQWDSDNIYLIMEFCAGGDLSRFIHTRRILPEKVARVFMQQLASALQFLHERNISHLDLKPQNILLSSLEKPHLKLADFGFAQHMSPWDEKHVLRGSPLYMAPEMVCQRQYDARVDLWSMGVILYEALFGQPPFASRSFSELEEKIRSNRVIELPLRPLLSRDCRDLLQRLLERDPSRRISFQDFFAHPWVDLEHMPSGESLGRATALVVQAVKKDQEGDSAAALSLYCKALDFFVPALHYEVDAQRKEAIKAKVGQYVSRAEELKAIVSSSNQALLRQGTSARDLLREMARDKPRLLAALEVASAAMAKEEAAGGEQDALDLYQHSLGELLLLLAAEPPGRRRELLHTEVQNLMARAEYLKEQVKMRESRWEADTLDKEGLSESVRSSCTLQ
Briefly: Selectivity interaction (KinomeScan (DiscoverX)) EUB0001049a ULK3. The conditions noted are these: at 1 µM.

Assay [5] has as its target Serine/threonine-protein kinase 26 (Homo sapiens, UniProt Q9P289). Briefly: Selectivity interaction (KinomeScan (DiscoverX)) EUB0000045b STK26.
Assay [6] has as its target T3, Ephrin type-A receptor 1 (Homo sapiens) (UniProt P21709).
T3 sequence (whole entry): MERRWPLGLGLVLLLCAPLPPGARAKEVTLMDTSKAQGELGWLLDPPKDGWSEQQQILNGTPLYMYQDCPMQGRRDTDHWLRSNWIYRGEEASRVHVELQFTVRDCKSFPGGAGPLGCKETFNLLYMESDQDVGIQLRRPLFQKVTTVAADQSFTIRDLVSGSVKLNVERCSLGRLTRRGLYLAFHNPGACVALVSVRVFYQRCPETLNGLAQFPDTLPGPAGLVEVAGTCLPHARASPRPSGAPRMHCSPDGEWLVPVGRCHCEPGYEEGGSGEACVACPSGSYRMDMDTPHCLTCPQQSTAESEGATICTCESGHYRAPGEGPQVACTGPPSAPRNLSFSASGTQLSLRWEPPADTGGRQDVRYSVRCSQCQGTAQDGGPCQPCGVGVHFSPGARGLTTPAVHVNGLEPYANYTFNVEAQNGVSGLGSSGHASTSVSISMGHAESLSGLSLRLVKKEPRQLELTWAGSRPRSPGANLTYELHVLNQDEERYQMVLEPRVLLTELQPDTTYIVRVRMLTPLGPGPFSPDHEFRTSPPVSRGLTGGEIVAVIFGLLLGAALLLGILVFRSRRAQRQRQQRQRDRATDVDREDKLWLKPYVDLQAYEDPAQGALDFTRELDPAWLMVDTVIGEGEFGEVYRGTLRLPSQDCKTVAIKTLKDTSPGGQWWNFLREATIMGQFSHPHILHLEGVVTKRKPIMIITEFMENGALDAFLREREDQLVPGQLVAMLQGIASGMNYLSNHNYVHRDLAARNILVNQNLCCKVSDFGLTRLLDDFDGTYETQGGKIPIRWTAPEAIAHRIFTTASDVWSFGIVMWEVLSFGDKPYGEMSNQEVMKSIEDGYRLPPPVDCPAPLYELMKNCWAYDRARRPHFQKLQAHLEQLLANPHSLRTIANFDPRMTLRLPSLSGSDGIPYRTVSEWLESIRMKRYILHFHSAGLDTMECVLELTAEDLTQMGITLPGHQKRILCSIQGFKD
The assay is described as follows: Selectivity interaction (KinomeScan (DiscoverX)) EUB0000618a EPHA1. The conditions noted are these: at 10 µM.

Sequence of Serine/threonine-protein kinase 26 (Q9P289 2-416 limits assumed): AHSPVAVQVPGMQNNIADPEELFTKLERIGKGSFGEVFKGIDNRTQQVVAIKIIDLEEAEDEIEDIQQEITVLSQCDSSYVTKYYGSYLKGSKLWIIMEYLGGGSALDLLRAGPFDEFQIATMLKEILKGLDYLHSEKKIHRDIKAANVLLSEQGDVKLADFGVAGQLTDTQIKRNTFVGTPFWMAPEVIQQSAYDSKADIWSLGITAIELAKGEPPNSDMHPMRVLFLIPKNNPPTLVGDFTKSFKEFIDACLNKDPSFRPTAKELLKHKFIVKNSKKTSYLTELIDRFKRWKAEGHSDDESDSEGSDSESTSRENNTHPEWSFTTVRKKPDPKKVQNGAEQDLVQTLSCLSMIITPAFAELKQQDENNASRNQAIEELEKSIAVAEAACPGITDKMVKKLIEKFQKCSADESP
Sequence of Ribosomal protein S6 kinase alpha-4 (Homo sapiens) (O75676 whole entry, looked up): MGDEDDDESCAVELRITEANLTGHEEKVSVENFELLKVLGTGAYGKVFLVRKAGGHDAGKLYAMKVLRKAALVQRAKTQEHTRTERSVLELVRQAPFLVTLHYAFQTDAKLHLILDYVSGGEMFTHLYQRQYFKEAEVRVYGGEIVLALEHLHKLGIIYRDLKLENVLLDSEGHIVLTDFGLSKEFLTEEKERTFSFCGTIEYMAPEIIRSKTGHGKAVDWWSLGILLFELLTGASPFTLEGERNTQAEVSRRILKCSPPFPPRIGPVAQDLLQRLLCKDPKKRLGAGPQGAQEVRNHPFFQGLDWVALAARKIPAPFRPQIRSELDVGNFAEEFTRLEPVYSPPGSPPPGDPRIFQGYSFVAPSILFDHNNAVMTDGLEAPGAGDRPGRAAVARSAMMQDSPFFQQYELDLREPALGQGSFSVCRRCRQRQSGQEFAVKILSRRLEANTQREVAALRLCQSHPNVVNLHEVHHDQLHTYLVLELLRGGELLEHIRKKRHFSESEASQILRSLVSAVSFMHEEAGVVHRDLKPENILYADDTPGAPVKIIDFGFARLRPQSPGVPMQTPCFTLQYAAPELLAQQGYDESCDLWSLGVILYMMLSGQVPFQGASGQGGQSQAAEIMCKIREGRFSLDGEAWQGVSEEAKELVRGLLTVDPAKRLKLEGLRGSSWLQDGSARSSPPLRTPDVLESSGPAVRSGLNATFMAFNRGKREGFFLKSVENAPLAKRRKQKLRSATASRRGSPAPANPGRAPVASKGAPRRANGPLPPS
Sequence of MAP/microtubule affinity-regulating kinase 3 (Homo sapiens) (P27448 whole entry, looked up): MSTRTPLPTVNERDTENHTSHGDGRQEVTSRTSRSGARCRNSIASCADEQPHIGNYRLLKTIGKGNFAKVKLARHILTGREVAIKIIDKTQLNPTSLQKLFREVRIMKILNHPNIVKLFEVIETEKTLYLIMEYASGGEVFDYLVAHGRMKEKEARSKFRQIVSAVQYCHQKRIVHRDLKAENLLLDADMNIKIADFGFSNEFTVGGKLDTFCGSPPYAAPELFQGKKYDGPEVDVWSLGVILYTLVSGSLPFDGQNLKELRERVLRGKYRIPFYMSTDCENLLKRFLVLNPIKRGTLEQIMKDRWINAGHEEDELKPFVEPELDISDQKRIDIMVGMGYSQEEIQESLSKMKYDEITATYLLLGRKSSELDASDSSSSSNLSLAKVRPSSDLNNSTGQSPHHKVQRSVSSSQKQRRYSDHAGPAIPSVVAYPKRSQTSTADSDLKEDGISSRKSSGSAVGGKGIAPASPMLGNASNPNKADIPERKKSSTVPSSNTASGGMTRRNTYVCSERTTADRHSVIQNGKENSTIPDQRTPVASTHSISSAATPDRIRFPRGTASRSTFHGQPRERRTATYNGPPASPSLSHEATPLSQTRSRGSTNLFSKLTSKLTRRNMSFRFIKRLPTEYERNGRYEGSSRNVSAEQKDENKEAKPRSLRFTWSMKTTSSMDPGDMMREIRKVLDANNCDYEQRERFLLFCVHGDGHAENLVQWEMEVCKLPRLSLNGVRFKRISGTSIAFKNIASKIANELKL

For `C=CC(=O)Nc1ccc(C(=O)Nc2[nH]nc3c2CN(C(=O)N[C@H](CN(C)C)c2ccccc2)C3(C)C)cc1`, the % of engagement in assay [1] was -11.5%.

In turn, `Cc1cc([C@@H](C)Nc2ccccc2C(=O)O)c2nc(N3CCOCC3)cc(=O)n2c1` [AZD-6482] showed a % of control in assay [2] of 100%.

Regarding `CC[C@@H]1[C@H](F)C(=O)N[C@@H]1COc1nccc2cc(C(N)=O)c(OC)cc12` [ZIMLOVISERTIB], in assay [3], the % of inhibition amounted to 2.7%.

Turning to `COc1cc(Nc2nc(C)cc(-c3cnn4nc(OC)ccc34)n2)cc(C(F)(F)F)c1`, the % of control in assay [4] is 79%.

`C=CC(=O)Nc1cc(-n2c(=O)ccc3cnc4ccc(-c5ccc(NS(C)(=O)=O)cc5)cc4c32)ccc1C`: the % of control in assay [5] (at 1 µM) is 100%; in assay [5] (at 10 µM), 90%.

In the case of `O[C@H]1CC[C@H](Nc2ncc3nc(Nc4c(F)cc(F)cc4F)n([C@H]4CCOC4)c3n2)CC1`, the % of control in assay [6] amounted to 100%.
